The values that follow come from article PMC2919500 (Biochemistry, 2008).

For test [1], the target named is T1, AKT1 PH domain (Homo sapiens, UniProt P31749). In words: Direct IP6 titration of the free PH domain. The settings on record: read-out: KD(IP6); free WT AKT1 PH domain, 25 °C, binding buffer pH 7.4.
Test [2] concerns the target T2, AKT1 E17K PH domain (Homo sapiens, UniProt P31749, E17K). Nature of the test: Direct IP6 titration of the free PH domain. Format: binding.
For test [3], the target named is T1, AKT1 PH domain. In words: IP6 competitive displacement assay.
Test [4] addresses T3, PLCδ1 PH domain (Mus musculus, UniProt Q8R3B1).
T3 sequence (Q8R3B1 12-142): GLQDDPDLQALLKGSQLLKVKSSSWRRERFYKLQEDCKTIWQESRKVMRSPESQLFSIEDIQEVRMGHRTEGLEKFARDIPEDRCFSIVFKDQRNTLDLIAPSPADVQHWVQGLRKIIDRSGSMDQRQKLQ
Nature of the test: Direct IP6 titration of the free PH domain. The settings on record: read-out: KD(IP6), 25 °C, binding buffer pH 7.4.

In test [5] the target is T3, PLCδ1 PH domain. In words: IP6 competitive displacement assay.
The target in test [6] is T2, AKT1 E17K PH domain. Nature of the test: IP6 competitive displacement assay. To be noted: for Ki: read-out: KI(IP6).
Test [7] concerns the target RFP-AKT1 E17K PH (Homo sapiens, UniProt P31749, E17K). Nature of the test: Plasma membrane targeting in live NIH 3T3 cells. Format: cell-based. The settings on record: serum starvation with inhibitor prior to imaging, data not shown.
For test [8], the target named is T4, CFP-PLCδ1 PH (Homo sapiens, UniProt P51178).
T4 sequence (P51178 21-130 limits assumed): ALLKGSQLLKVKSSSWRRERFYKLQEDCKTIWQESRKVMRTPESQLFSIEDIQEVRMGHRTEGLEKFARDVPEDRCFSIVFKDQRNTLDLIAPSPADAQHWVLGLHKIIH
In words: Plasma membrane targeting in live NIH 3T3 cells. In kind it is cell-based. To be noted: serum starvation with inhibitor prior to imaging, data not shown.

For test [9], the target named is Citrine-AKT1 PH (Homo sapiens, UniProt P31749). Nature of the test: Plasma membrane targeting in live NIH 3T3 cells. In kind it is cell-based. To be noted: serum-starved NIH 3T3 cells, 10 nM PDGF 5 min, then 800 nM wortmannin 15 min.
Sequence of Citrine-AKT1 PH (P31749 5-108 limits assumed): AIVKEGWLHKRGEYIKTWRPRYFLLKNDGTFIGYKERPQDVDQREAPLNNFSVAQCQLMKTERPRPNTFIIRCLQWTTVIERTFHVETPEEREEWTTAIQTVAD
In test [10] the target is T2, AKT1 E17K PH domain. Nature of the test: Stopped-flow association and dissociation kinetics.

Read-outs that look alike come from different tables or passages of the source.

T2 sequence (P31749 1-120 E17K): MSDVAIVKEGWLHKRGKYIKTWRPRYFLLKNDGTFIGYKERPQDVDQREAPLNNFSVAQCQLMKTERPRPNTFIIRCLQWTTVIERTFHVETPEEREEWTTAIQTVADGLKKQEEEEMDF
T1 sequence (P31749 1-120): as the sequence (P31749 1-120 E17K) above, with K17E counted along it
Sequence of RFP-AKT1 E17K PH (P31749 5-108 E17K limits assumed): as the sequence (P31749 5-108 limits assumed) above, with E13K counted along it

Regarding `O=P(O)(O)OC1C(OP(=O)(O)O)C(OP(=O)(O)O)C(OP(=O)(O)O)C(OP(=O)(O)O)C1OP(=O)(O)O` (stereo not drawn) [IP6, inositol 1,2,3,4,5,6-hexakisphosphate], the Kd came to 260 ± 50 µM in test [1]; 11 ± 1 µM in test [2] (read-out: KD(IP6), free AKT1 E17K PH domain, 25 °C, binding buffer pH 7.4); 3 ± 0.2 µM in [4]. Further, the “additional IP6 binding free energy from the E17K mutation” value in [2] (ΔΔG, E17K versus WT AKT1 PH) is reported as 3.0 RT. Also, the Ki came out at 28000 ± 1000 µM in test [3] (read-out: KI(IP6), displacement of AKT1 PH from PM(+)PI(3,4,5)P3); 47 ± 4 µM in [5] (read-out: KI(IP6), displacement of PLCδ1 PH from PM(+)PI(4,5)P2); 8000 ± 2000 µM in [6] (displacement of AKT1 E17K PH from PM(+)PI(3,4,5)P3); 210 ± 10 µM in [6] (displacement of AKT1 E17K PH from PM(+)PI(4,5)P2).
For the molecule `COC[C@H]1OC(=O)c2coc3c2[C@@]1(C)C1=C(C3=O)[C@@H]2CCC(=O)[C@@]2(C)C[C@H]1OC(C)=O` [wortmannin], the “constitutive plasma membrane targeting in the presence of a PI3K inhibitor” value in test [7] and in [8] was “not disrupted” throughout. Also, the “localization of the WT AKT1 PH domain after PI3K inhibition” value in [9] is “returns to the cytoplasm”.
In the case of “L-α-phosphatidylinositol 4,5-bisphosphate [PI(4,5)P2]”, the kon in test [10] (0.5 µM protein, 200 µM total lipid, 25 °C) is on record as 1.3 ± 0.1 ×10^7 M^−1 s^−1. The koff in test [10] (dissociation with excess IP6 (40 mM), 25 °C) amounted to 1.5 ± 0.1 s⁻¹. For the same molecule, the Kd is 0.12 ± 0.01 µM in test [10] (read-out: KD (koff/kon), calculated from the rate constants); above 10 µM in test [3] (read-out: KD(PIPn), WT AKT1 PH, PIP lipid embedded in synthetic plasma membrane, from KD(IP6) and KI(IP6)); 0.19 ± 0.07 µM in [5] (read-out: KD(PIPn), PLCδ1 PH, PIP lipid embedded in synthetic plasma membrane, from KD(IP6) and KI(IP6)); 0.13 ± 0.03 µM in [6] (read-out: KD(PIPn), AKT1 E17K PH, PIP lipid embedded in synthetic plasma membrane, from KD(IP6) and KI(IP6)). Moreover, the “affinity enhancement by E17K larger than for the other two ligands” value in test [6] (PI(4,5)P2 versus IP6 and PI(3,4,5)P3) is “at least 10 fold”.

One may read the Ki as a measure of affinity in units of concentration, obtained from inhibition or displacement. As usually defined, the koff is a measure of how fast the partners let go of each other. High values mean a short-lived complex, low ones a long-lived complex.
